SMILES strings stand for the structures.

For assay [1], the system named is 22AG (DNA, G4) AGGGTTAGGGTTAGGGTTAGGG
As to the kind of experiment: photometric titration (Specfit). To be noted: K+ (25 mM K2HPO4, 70 mM KCl), K-phosphate pH 7.0, DMSO cosolvent (10% in legend, 5% in methods).

Assay [2] has as its system a2 (DNA, G4) ACAGGGGTGTGGGGACAGGGGTGTGGGG
The assay can be described thus: photometric titration (Specfit). To be noted: K+ (25 mM K2HPO4, 70 mM KCl), K-phosphate pH 7.0, DMSO cosolvent (10% in legend, 5% in methods).

The test system of assay [3] is F21T (DNA, G4) GGGTTAGGGTTAGGGTTAGGG
The assay can be described thus: FRET melting. The note with it: K+ 10 mM (KCl), Na+ 10 mM (cacodylate), Li+ 90 µM [sic]; Na-cacodylate pH 7.2; DNA 0.2 µM, LDR 5 (1 µM ligand); error ± 0.5 °C.

The test system of assay [4] is FkitT (DNA, G4) AGGGAGGGCGCTGGGAGGAGGG
As to the kind of experiment: FRET melting. To be noted: K+ 10 mM (KCl), Na+ 10 mM (cacodylate), Li+ 90 µM [sic]; Na-cacodylate pH 7.2; DNA 0.2 µM, LDR 5 (1 µM ligand); error ± 0.5 °C.

The subject of assay [5] is Fa2T (DNA, G4) ACAGGGGTGTGGGGACAGGGGTGTGGGG
The assay can be described thus: FRET melting. To be noted: K+ 10 mM (KCl), Na+ 10 mM (cacodylate), Li+ 90 µM [sic]; Na-cacodylate pH 7.2; DNA 0.2 µM, LDR 5 (1 µM ligand); error ± 0.5 °C.

The test system of assay [6] is FmycT (DNA, G4) TGAGGGTGGGTAGGGTGGGTAA
The assay can be described thus: FRET melting. The note with it: K+ 10 mM (KCl), Na+ 10 mM (cacodylate), Li+ 90 µM [sic]; Na-cacodylate pH 7.2; DNA 0.2 µM, LDR 5 (1 µM ligand); error ± 0.5 °C.

Assay [7] deals with FkrasT (DNA, G4) AGGGCGGTGTGGGAAGAGGA
The assay can be described thus: FRET melting. To be noted: K+ 10 mM (KCl), Na+ 10 mM (cacodylate), Li+ 90 µM [sic]; Na-cacodylate pH 7.2; DNA 0.2 µM, LDR 5 (1 µM ligand); error ± 0.5 °C.

With `COc1ccc2cc3[n+](cc2c1OCCCn1cc(Cn2cnc4c(N)ncnc42)nn1)CCc1cc2c(cc1-3)OCO2`, the “log Kb” value is given as 5.64 ± 0.15 log (K in M^-1) in assay [1], 10.8 ± 0.2 log (K in M^-2) in assay [1] (overall 2:1 constant), 5.39 ± 0.14 log (K in M^-1) in assay [2] and 10.6 ± 0.2 log (K in M^-2) in assay [2] (overall 2:1 constant). Also, in assay [3], the shift in melting temperature (ΔTm) was determined as 6.2 °C.
With `COc1ccc2cc3[n+](cc2c1OCCCCCCn1cc(Cn2cnc4c(N)ncnc42)nn1)CCc1cc2c(cc1-3)OCO2`, the “log Kb” value in assay [1] (overall 2:1 constant) is given as 10.7 ± 0.1 log (K in M^-2); in assay [2] (overall 2:1 constant) it was 11.1 ± 0.1 log (K in M^-2). Also, the ΔTm is 2.7 °C in assay [4]; 1.1 °C in assay [5]; 12.9 °C in assay [3]; 5.0 °C in assay [6]; 10.1 °C in assay [7].
Regarding `COc1ccc2cc3[n+](cc2c1OCCCCCn1cc(Cn2cnc4c(N)ncnc42)nn1)CCc1cc2c(cc1-3)OCO2`, the figures for the “log Kb” value in assay [1], in assay [1] (overall 2:1 constant) and in assay [2] (overall 2:1 constant) were 5.09 ± 0.13 log (K in M^-1), 10.8 ± 0.1 log (K in M^-2) and 11.1 ± 0.2 log (K in M^-2), respectively. In addition, the figures for the ΔTm in assay [5] and in assay [3] were 0.0 °C and 9.9 °C, respectively.
As to `COc1ccc2cc3[n+](cc2c1OCCn1cc(Cn2cnc4c(N)ncnc42)nn1)CCc1cc2c(cc1-3)OCO2`, the “log Kb” value is on record as 5.89 ± 0.07 log (K in M^-1) in assay [1], 5.27 ± 0.08 log (K in M^-1) in assay [2] and 10.3 ± 0.1 log (K in M^-2) in assay [2] (overall 2:1 constant). Besides, the ΔTm in assay [5] was −0.5 °C; in assay [3], 3.4 °C.
For `COc1ccc2cc3[n+](cc2c1OCCCCn1cc(Cn2cnc4c(N)ncnc42)nn1)CCc1cc2c(cc1-3)OCO2`, the results for the “log Kb” value in assay [1], in assay [1] (overall 2:1 constant) and in assay [2] (overall 2:1 constant) were 5.23 ± 0.09 log (K in M^-1), 10.7 ± 0.1 log (K in M^-2) and 10.6 ± 0.3 log (K in M^-2), respectively. Further, the thermal shift (ΔTm) was −0.1 °C in assay [5] and 6.4 °C in assay [3].

Usually ΔTm stands for the shift of the melting midpoint relative to a reference.

These data come from publication PMC7684686 (2020).
